Measurements reported in patent US8591892B2, “FTY720 increases CD74 expression and sensitizes cancer cells to anti-CD74 antibody-mediated cell death” (The Ohio State University, priority 2011, dated 2013).
Entries after “also recorded” stand apart in the source; their conditions may differ. Like-named read-outs stand apart in the source and are kept apart here.

Key:
[1] = system: MCL cell lines (Jeko-1, Mino, UPN-1, Z-138); experiment: Immunoblot for LC3-I/LC3-II (autophagic flux); format: cell-based, human
Source text: (§1) FIG. 1. […] Actin was used as loading control. […] Actin was used as loading control.

MCL cell lines = experiment: Cytotoxicity of OSU-2S; format: cell-based
[2] = system: MCL cell lines (Jeko-1, Mino, UPN-1, Z-138); experiment: Confocal microscopy of total cellular LC3; format: cell-based, human
[3] = system: MCL cell lines (Jeko-1, Mino, UPN-1, Z-138); experiment: Immunoblot for p62; format: cell-based, human; conditions: UPN-1 and Z-138 cells, 24 hours
Source text: as §1

[4] = system: Jeko-1 and Mino cell lines; experiment: Transmission electron microscopy of ultrastructural changes; format: cell-based, human; conditions: Jeko and Mino cells; chloroquine 40 μM, FTY720 10 μM
Method: Monolayer cells were grown in chamber slides in medium containing chloroquine (40 μM) or FTY720 (10 μM) for 12 hours. Prior to processing, the cells were fixed for 30 min in 2.5% glutaraldehyde in 0.1 M phosphate buffer pH 7.4. […] Images were obtained with a PEI TECHNAI™ G2 Spirit Transmission Electron Microscope.
We next examined ultrastructural morphologic changes in Jeko-1 and Mino cell lines treated with FTY720 using TEM.

Jeko-1 and Mino cells = experiment: Acridine orange staining, flow cytometry (lysosomal membrane permeability); format: cell-based, human; conditions: 8 hours, vs untreated control
Method: Cells were then stained with AO (1 μg/mL) for 15 minutes. The relative changes in FL1 fluorescence were assessed by flow cytometry. Representative histograms summarizing AO fluorescence intensity of MCL treated with FTY720, chloroquine, rapamycin or combinations are shown (MFI of treated cells is normalized to the untreated controls. (C) Jeko-1 and Mino cells were treated with FTY720 at the indicated concentration in the presence or absence of cathepsin inhibitor III (5 and 10 μM). Cell death was determined by annexin V/PI staining and flow cytometry at 8 hours. Data are shown as percentage of annexin V−/PI− cells (live cells).
To assess lysosomal membrane permeability, FTY720 treated cells were incubated with acridine orange (MOLECULAR PROBES; INVITROGEN).
AO at acidic pH (i.e., lysosomal) fluoresces red, however, when AO leaks into a neutral pH (i.e., cytosolic), it causes an increase in green fluorescence that can be detected by flow cytometry.

[5] = system: surface CD74 on Jeko-1 and Mino cells; experiment: CD74-FITC staining and flow cytometry (CD74 MFI); format: cell-based, human; conditions: 8 and 24 hours, vs untreated control or rapamycin
Method: (B) CD74 MFI of MCL cells treated with FTY720, chloroquine or rapamycin at the indicated concentrations after 8 and 24 hours. […] P values are calculated comparing FTY720, chloroquine and rapamycin treatment to the untreated control.
MCL cell lines were treated with FTY720, chloroquine (SIGMA, St Louis, Mo.) or rapamycin (CALBIOCHEM, San Diego, Calif.) for 8 and 24 hours and CD74 mean fluorescence intensity (MFI) was determined relative to a specific isotype control. After treatment, cells (1×10^6) were washed in phosphate-buffered saline (PBS), stained with CD74-FITC (BD BIOSCIENCES, San Jose, Calif.) for 15 minutes at 4° C., then rinsed in PBS and analyzed by flow cytometry (EPICS-XL™; BECKMAN COULTER, Fullerton, Calif.). A total of 10,000 events were collected and analyzed using Windows Multiple Document Interface for Flow Cytometry (WinMDI, Scripps Research Institute, San Diego, Calif.).
To determine the influence of FTY720 treatment on CD74 surface levels, Jeko-1 and Mino cells were incubated with FTY720, chloroquine or rapamycin for 8 and 24 hours. CD74 MFI values were determined by CD74-FITC staining and flow cytometry.

Aspc-1 = experiment: Flow cytometry of CD74, HLA-DR, CEACAM5 with directly labeled MAbs, with and without IFN-γ; format: cell-based
Method: (§2) Expression of CD74, HLA-DR, and carcinoembryonic antigen (CEACAM5) was determined in untreated cells and cells exposed to 200 U of IFN-γ for 48 h by flow cytometry. Cells were stained with directly labeled MAbs in comparison to a directly labeled human IgG control. Antibodies were labeled using ALEXA FLUOR® 488 (Invitrogen, Carlsbad, Calif.). For determination of cytoplasmic antigen expression, cells were permeabilized prior to staining using the BD CYTOFIX/CYTOPERM™ kit (BD Biosciences, San Jose, Calif.).

BxPC-3 = experiment: as above; format: cell-based
Method: as §2

CAG = experiment: as above; format: cell-based
Method: as §2

Capan-1 = experiment: as above; format: cell-based
Method: as §2

FSCCL = experiment: as above; format: cell-based
Method: as §2

HT29 = experiment: as above; format: cell-based
Method: as §2

KMS11 = experiment: as above; format: cell-based
Method: as §2

LS174T = experiment: as above; format: cell-based
Method: as §2

Lovo = experiment: as above; format: cell-based
Method: as §2

Moser = experiment: as above; format: cell-based
Method: as §2

Panc-1 = experiment: as above; format: cell-based
Method: as §2

RL = experiment: as above; format: cell-based
Method: as §2

TU118 = experiment: as above; format: cell-based
Method: as §2

U118 = experiment: as above; format: cell-based
Method: as §2

U87 = experiment: as above; format: cell-based
Method: as §2

[6] = biological target: DDD of the RII form of PKA (RIIα dimers) (Homo sapiens, UniProt P13861); conditions: read-out: binding constant for DDD; cited from earlier work
Chain of DDD of the RII form of PKA (RIIα dimers) (P13861 whole entry, canonical isoform): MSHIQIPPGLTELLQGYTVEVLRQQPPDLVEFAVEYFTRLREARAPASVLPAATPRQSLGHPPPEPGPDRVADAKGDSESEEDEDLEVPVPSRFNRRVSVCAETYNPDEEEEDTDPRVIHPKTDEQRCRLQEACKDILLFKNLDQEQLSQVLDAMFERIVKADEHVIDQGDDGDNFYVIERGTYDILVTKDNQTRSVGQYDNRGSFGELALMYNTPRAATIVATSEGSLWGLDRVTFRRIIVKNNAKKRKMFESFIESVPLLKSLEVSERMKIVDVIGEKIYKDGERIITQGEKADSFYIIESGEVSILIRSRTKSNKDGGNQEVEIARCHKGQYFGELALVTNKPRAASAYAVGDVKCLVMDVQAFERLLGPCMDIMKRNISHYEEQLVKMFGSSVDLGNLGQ

[7] = system: RII isoform of PKA compared with the RI isoform; conditions: cited from earlier work
[8] = system: CD74 in Jeko-1, Mino, UPN-1 and Z-138 cells; experiment: Confocal microscopy of total CD74 with rhodamine-conjugated milatuzumab; format: cell-based, human; conditions: Jeko-1 and Mino cells, non-immobilized, 5 μg/ml
Method: Cells were stained with an anti-CD74 antibody (FITC conjugated and CD74 MFI was measured by flow cytometry. Representative histograms summarizing the MFI of untreated and treated Jeko-1, Mino, UPN-1 and Z-138 cells are shown. (C) The amount of total cellular CD74 was determined by confocal microscopy. Jeko-1, Mino, UPN-1 and Z-138 cells were treated with FTY720 at the indicated doses, chloroquine (40 μM), rapamycin (10 μM) or the combination of FTY720 and chloroquine, for 4, 8 and 24 hours. CD74 fluorescence intensity was measured in 4 microscopic fields and integrated intensity was averaged relative to the number of cells per field (˜180-220 cells per condition).
MCL cells for confocal fluorescence microscopy were fixed and stained as previously described (Alinari et al., 2011, Blood 117:4530-41). Briefly, after exposure to drugs, cells were made adherent on a microscope slide by centrifugation. Immediately after cytospin, cells were fixed in cold acetone for two minutes. For CD74 immunofluorescence, the cells were incubated with rhodamine-conjugated milatuzumab. […] Nuclei were stained blue with DAPI (Vector laboratories, Burlingame, Calif.). […] For quantification, 4 microscopic fields per slide were analyzed. Nuclei count was performed using an edge constrained marker-controlled watershed for iterative fluorescence microscopic cell image splitting.

## CCC[C@@](N)(CO)CCc1ccc(OCCCCCC(C)C)cc1 [OSU-2S, (S)-2-amino-2-(4-[(6-methylheptyl)-oxy]phenethyl)pentan-1-ol]
[1]; Jeko-1, Mino and Z-138 cell lines, 24 hours, Western blotting
  LC3-II levels: increased levels of LC3-II
MCL cell lines; MCL cell lines
  cytotoxicity: exhibited cytotoxicity
MCL cell lines; MCL cell lines and primary cells
  cytotoxic activity: significant cytotoxic activity

## CCN(CC)CCCC(C)Nc1ccnc2cc(Cl)ccc12 (stereo not drawn) [chloroquine]
[1]
  LC3-II levels: significant increase in LC3-II levels; also recorded: increased levels of LC3-II
[2]
  LC3 fluorescence intensity: statistically significant increase in LC3 fluorescence intensity
[3]
  p62 levels: significant increase of p62 levels
[4]
  ultrastructural morphologic changes (TEM): increased accumulation of autophagosomes
Jeko-1 and Mino cells
  acridine orange green fluorescence (FL1): slight increase of green fluorescence
[5]
  CD74 MFI (surface): slight increase of CD74 MFI

## Labetuzumab: anti-CEA antibody, directly labeled
Aspc-1; Aspc-1
  % change of cell surface expression with IFNγ: 26.3%
  % change of cytoplasmic expression with IFNγ: 53.2%
Aspc-1; Aspc-1 + IFNγ 200 U, 48 h
  Cell surface expression (staining with directly labeled MAb): 66.8
Aspc-1; Aspc-1, without IFN-γ
  Cell surface expression (staining with directly labeled MAb): 52.9
BxPC-3; BxPC-3
  % change of cell surface expression with IFNγ: 25.6%
  % change of cytoplasmic expression with IFNγ: 52.7%
BxPC-3; BxPC-3 + IFNγ 200 U, 48 h
  Cell surface expression (staining with directly labeled MAb): 7.0
BxPC-3; BxPC-3, without IFN-γ
  Cell surface expression (staining with directly labeled MAb): 5.6
CAG; CAG
  % change of cell surface expression with IFNγ: 3.0%
  % change of cytoplasmic expression with IFNγ: 27.4%
CAG; CAG + IFNγ 200 U, 48 h
  Cell surface expression (staining with directly labeled MAb): 5.2
CAG; CAG, without IFN-γ
  Cell surface expression (staining with directly labeled MAb): 5.0
Capan-1; Capan + IFNγ 200 U, 48 h
  Cell surface expression (staining with directly labeled MAb): 48.8
Capan-1; Capan-1
  % change of cell surface expression with IFNγ: −15.1%
  % change of cytoplasmic expression with IFNγ: 8.7%
Capan-1; Capan-1, without IFN-γ
  Cell surface expression (staining with directly labeled MAb): 57.5
FSCCL; FSCCL
  % change of cell surface expression with IFNγ: 7.6%
  % change of cytoplasmic expression with IFNγ: 100.7%
FSCCL; FSCCL + IFNγ 200 U, 48 h
  Cell surface expression (staining with directly labeled MAb): 2.8
FSCCL; FSCCL, without IFN-γ
  Cell surface expression (staining with directly labeled MAb): 2.6
HT29; HT29
  % change of cell surface expression with IFNγ: 213.5%
  % change of cytoplasmic expression with IFNγ: 122.7%
HT29; HT29 + IFNγ 200 U, 48 h
  Cell surface expression (staining with directly labeled MAb): 34.9
HT29; HT29, without IFN-γ
  Cell surface expression (staining with directly labeled MAb): 11.1
KMS11; KMS11
  % change of cell surface expression with IFNγ: 7.1%
  % change of cytoplasmic expression with IFNγ: −11.4%
KMS11; KMS11 + IFNγ 200 U, 48 h
  Cell surface expression (staining with directly labeled MAb): 2.3
KMS11; KMS11, without IFN-γ
  Cell surface expression (staining with directly labeled MAb): 2.1
LS174T; LS174T
  % change of cell surface expression with IFNγ: 167.9%
  % change of cytoplasmic expression with IFNγ: 195.9%
LS174T; LS174T + IFNγ 200 U, 48 h
  Cell surface expression (staining with directly labeled MAb): 163.7
LS174T; LS174T, without IFN-γ
  Cell surface expression (staining with directly labeled MAb): 61.1
Lovo; Lovo
  % change of cell surface expression with IFNγ: 48.6%
  % change of cytoplasmic expression with IFNγ: 52.4%
Lovo; Lovo + IFNγ 200 U, 48 h
  Cell surface expression (staining with directly labeled MAb): 84.4
Lovo; Lovo, without IFN-γ
  Cell surface expression (staining with directly labeled MAb): 56.8
Moser; Moser
  % change of cell surface expression with IFNγ: 20.9%
  % change of cytoplasmic expression with IFNγ: 41.8%
Moser; Moser + IFNγ 200 U, 48 h
  Cell surface expression (staining with directly labeled MAb): 77.2
Moser; Moser, without IFN-γ
  Cell surface expression (staining with directly labeled MAb): 63.8
Panc-1; Panc-1
  % change of cell surface expression with IFNγ: 6.3%
  % change of cytoplasmic expression with IFNγ: 161.2%
Panc-1; Panc-1 + IFNγ 200 U, 48 h
  Cell surface expression (staining with directly labeled MAb): 4.4
Panc-1; Panc-1, without IFN-γ
  Cell surface expression (staining with directly labeled MAb): 4.1
RL; RL
  % change of cell surface expression with IFNγ: 17.3%
  % change of cytoplasmic expression with IFNγ: 37.9%
RL; RL + IFNγ 200 U, 48 h
  Cell surface expression (staining with directly labeled MAb): 2.9
RL; RL, without IFN-γ
  Cell surface expression (staining with directly labeled MAb): 2.4
TU118; TU118
  % change of cell surface expression with IFNγ: 13.0%
  % change of cytoplasmic expression with IFNγ: 115.5%
TU118; TU118 + IFNγ 200 U, 48 h
  Cell surface expression (staining with directly labeled MAb): 5.29
TU118; TU118, without IFN-γ
  Cell surface expression (staining with directly labeled MAb): 4.68
U118; U118
  % change of cell surface expression with IFNγ: 2.4%
  % change of cytoplasmic expression with IFNγ: 78.2%
U118; U118 + IFNγ 200 U, 48 h
  Cell surface expression (staining with directly labeled MAb): 5.6
U118; U118, without IFN-γ
  Cell surface expression (staining with directly labeled MAb): 5.5
U87; U87
  % change of cell surface expression with IFNγ: 23.8%
  % change of cytoplasmic expression with IFNγ: 79.0%
U87; U87 + IFNγ 200 U, 48 h
  Cell surface expression (staining with directly labeled MAb): 4.5
U87; U87, without IFN-γ
  Cell surface expression (staining with directly labeled MAb): 3.7

## QIEYLAKQIVDNAIQQA [AKAP-IS]
[6]
  Kd: 0.4 nM

## QIEYVAKQIVDYAIHQA [SuperAKAP-IS]
[7]
  selectivity for RII over RI isoform of PKA: five order of magnitude higher selectivity

## rhodamine-conjugated milatuzumab: fluorescence labeled milatuzumab made with NHS-rhodamine
[8]
  internalization of CD74: rapid internalization of CD74
